Tested on: HepG2, HMEC-1, A549, Caco-2, 3T3
Experiment: Multiparameter automated HCS cytotoxicity test "Cell health assay"
Format: cell-based
Set-up: scale not given here
Settings: for cumulative cytotoxicity index: points over 5 cell lines; for cumulative cytotoxicity index, Total: sum over the five concentrations
Description: Thanks to the use of three fluorescent dyes (MitoTracker - Invitrogen, YO-[…], Hoechst 33 342 - Sigma), assessment of the impact of the studied extracts on the size, and morphology of the nucleus, cytoplasmic membrane integrity, and mitochondrial activity was made. Tests were performed on 96-well plates using 5 cell lines (HepG2, HMEC-1, A549, Caco-2, 3T3). The measurements were taken using automatic pipetting station JANUS by Perkin Elmer. The formulation was examined at five concentrations, measurements were taken in duplicates in 5 independent series. Based on the raw experimental data, statistical analysis of significance of observed differences in average values for three selected measurement parameters, measuring the fluorescence intensity, and dyed surface in cells, using fluorescent dyes, was made. The selected parameters illustrate: • 1. Surface of the cell nucleus (Hoechst (Sigma) • 2. Accumulation of YO-[…] dye (Invitrogen), indicating cytoplasmic membrane damage • 3. Mitochondrial potential (MitoTracker - Invitrogen) Then, the statistically significant differences for each tested concentration of each substance, which indicate morphological, and functional changes in cells, showing cytotoxic activity, were assigned with point values as shown in the diagram of assessment of the observed effects below. Differences subject to the scoring: • 1. Decrease, or increase in nucleus surface • 2. Increase in the accumulation of YO-[…] • 3. Decrease in the mitochondrial potential The following Table 13 illustrates the assigned point values given to the studied formulations in "Cell health assay" test. Table 13. Point values adopted in "Cell health assay" test. [table]

Row | SMILES | cumulative cytotoxicity index (5 µg/ml) | cumulative cytotoxicity index (10 µg/ml) | cumulative cytotoxicity index (30 µg/ml) | cumulative cytotoxicity index (40 µg/ml) | cumulative cytotoxicity index (50 µg/ml) | cumulative cytotoxicity index, Total
1 | O=c1c(O)c(-c2ccc(O)cc2)oc2cc(O)cc(O)c12 [Kaempferol] | 2.6 | 1.4 | 8.4 | 8.4 | 6.2 | 27.0
2 | C[C@@H]1O[C@@H](O[C@H]2[C@H](Oc3cc(O)c4c(c3)O[C@H](c3ccc(O)cc3)CC4=O)O[C@H](CO)[C@@H](O)[C@@H]2O)[C@H](O)[C@H](O)[C@H]1O [Naringin] | 0.0 | 0.0 | 0.2 | 1.4 | 0.2 | 1.8

From patent EP2741758B1, “POLYPHENOLIC FORMULATION, ITS PREPARATION AND USE” (Uniwersytet Medyczny W Lodzi, priority 2011, dated 2013)
